# Measured values reported in ChEMBL document CHEMBL1201862, “PubChem BioAssay data set” (2004).
# The source made the active and inactive calls.
# Columns and labels:
# [1] = target: Cytochrome P450 2C19 (Homo sapiens, UniProt P33261); test: Cytochrome panel assay with activity outcomes. Panel member name: p450-cyp2c19 Compounds with AC50 equal or less than 10 uM are considered active; assay type: functional; details: read-out: AC50
# [2] = target: Cytochrome P450 2D6 (Homo sapiens, UniProt P10635);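 further: CYP2D6 member of a cytochrome P450 panel assay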
# [3] = target: T1, Corticotropin-releasing factor receptor 2/Corticotropin-releasing factor-binding protein (Homo sapiens, UniProt P24387+Q13324); test: activators of CRF receptor 2 with binding protein – uHTS hits, confirmation (AID 602473); assay type: functional; details: read-out: EC50_Mean
# T1 sequence (Q13324 whole entry): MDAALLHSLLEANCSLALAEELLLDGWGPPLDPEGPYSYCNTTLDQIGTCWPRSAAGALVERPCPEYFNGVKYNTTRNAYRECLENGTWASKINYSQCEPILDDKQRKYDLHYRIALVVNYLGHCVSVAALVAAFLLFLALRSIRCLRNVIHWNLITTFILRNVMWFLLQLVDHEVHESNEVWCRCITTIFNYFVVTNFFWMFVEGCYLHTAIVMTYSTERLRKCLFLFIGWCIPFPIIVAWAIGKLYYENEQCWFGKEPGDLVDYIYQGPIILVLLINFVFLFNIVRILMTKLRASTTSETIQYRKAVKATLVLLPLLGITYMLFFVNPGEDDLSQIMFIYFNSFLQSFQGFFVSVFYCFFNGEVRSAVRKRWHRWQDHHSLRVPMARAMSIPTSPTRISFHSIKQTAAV
# T1 sequence (P24387 whole entry): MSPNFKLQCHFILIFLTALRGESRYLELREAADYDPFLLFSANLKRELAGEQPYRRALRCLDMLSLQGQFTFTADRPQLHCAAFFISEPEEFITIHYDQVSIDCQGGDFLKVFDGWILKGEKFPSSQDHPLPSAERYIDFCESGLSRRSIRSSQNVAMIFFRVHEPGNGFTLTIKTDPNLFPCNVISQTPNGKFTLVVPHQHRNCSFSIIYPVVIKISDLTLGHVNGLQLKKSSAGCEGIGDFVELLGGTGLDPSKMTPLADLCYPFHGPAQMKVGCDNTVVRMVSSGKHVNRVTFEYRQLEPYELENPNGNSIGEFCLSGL
# [4] = target: Cytochrome P450 2C9 (Homo sapiens, UniProt P11712)
# [5] = target: T2, Cytochrome P450 1A2 (Homo sapiens, UniProt P05177)
# T2 sequence (P05177 whole entry): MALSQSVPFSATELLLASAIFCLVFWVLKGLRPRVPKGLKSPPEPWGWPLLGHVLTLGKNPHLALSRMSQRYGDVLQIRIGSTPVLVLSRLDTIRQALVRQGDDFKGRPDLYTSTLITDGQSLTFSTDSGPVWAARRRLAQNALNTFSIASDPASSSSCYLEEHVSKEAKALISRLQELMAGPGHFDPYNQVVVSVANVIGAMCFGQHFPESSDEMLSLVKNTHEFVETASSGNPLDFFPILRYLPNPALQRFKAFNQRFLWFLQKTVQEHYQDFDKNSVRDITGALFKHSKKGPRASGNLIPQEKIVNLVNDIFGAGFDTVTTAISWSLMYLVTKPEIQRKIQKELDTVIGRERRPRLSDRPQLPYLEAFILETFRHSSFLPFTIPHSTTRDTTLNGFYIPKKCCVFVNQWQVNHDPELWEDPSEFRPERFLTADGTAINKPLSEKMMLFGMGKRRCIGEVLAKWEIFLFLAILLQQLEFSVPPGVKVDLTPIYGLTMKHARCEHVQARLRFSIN
# [6] = target: Cytochrome P450 3A4 (Homo sapiens, UniProt P08684);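 further: CYP3A4 tested as one member of a cytochrome P450 panel screen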
# [7] = test system: Streptococcus sp. 'group A'; test: growth inhibition of control SK(-) GAS strain, dose response, counter-screen for streptokinase expression inhibitor project, luminescence, kanamycin, BacTiterGlo, confirmation (AID 1900); assay type: functional, organism-based
# [8] = test system: Streptococcus; test: Group A Streptococcus viability loss, dose response, counter-screen for streptokinase expression inhibitor project, luminescence, BacTiterGlo (AID 1915); assay type: functional, organism-based;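 further: potency for reduction of bacterial viability or growth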
# [9] = cells; assay type: functional
# Cytochrome P450 2C19, sequence (P33261 whole entry): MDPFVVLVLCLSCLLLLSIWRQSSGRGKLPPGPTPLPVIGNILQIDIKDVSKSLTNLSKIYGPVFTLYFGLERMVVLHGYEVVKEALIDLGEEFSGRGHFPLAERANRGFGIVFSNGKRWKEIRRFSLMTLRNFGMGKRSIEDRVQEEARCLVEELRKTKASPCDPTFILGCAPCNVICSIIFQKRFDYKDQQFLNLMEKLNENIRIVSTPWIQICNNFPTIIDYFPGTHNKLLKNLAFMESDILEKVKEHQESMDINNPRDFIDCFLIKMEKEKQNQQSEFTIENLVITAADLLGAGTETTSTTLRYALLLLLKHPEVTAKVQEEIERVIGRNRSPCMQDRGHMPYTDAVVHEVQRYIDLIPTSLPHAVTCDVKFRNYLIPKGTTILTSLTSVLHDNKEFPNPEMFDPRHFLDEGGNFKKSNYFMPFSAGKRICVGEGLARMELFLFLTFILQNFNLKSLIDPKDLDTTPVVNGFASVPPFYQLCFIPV
# Cytochrome P450 2C9, sequence (P11712 whole entry): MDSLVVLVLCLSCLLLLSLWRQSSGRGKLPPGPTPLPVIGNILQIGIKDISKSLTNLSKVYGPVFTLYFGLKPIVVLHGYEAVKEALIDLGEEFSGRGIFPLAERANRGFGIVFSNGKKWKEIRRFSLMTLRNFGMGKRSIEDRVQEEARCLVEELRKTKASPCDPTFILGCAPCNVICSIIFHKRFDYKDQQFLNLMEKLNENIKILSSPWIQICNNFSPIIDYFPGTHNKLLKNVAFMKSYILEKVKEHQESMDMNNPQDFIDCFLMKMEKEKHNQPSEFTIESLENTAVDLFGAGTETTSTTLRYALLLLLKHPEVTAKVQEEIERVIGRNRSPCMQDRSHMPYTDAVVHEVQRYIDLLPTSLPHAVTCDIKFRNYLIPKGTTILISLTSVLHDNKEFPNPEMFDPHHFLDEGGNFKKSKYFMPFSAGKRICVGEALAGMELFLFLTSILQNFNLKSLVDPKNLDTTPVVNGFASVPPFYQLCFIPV
# Cytochrome P450 3A4, sequence (P08684 whole entry): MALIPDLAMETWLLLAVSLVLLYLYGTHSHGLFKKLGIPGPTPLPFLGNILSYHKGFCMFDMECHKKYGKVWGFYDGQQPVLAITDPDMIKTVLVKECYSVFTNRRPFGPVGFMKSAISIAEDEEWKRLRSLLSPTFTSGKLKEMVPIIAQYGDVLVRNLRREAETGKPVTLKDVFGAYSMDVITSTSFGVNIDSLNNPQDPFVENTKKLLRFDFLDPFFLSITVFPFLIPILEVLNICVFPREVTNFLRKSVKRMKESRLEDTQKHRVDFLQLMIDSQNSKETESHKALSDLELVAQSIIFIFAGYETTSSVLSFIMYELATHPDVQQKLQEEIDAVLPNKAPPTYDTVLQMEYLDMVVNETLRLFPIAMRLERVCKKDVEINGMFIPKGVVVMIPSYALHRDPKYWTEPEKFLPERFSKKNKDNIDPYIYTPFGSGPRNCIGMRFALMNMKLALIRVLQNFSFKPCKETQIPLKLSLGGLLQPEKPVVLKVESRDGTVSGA
# Cytochrome P450 2D6, sequence (P10635 whole entry): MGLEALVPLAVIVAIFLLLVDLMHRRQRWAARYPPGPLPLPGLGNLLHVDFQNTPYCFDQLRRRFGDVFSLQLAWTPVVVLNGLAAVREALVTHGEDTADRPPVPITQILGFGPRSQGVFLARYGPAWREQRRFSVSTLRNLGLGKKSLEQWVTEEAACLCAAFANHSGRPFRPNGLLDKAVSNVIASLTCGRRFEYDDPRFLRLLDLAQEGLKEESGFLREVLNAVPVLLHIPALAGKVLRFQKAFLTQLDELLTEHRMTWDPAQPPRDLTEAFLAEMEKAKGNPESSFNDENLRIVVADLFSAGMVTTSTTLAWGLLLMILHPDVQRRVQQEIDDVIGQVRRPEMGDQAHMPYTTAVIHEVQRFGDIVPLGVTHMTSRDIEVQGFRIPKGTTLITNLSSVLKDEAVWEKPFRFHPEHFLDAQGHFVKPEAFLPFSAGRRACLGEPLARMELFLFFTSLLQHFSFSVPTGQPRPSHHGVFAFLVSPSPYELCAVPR
structure (smiles),measurement,setting,value
CCOc1cccc(NC(=O)CSc2nc(C)c3c(c2C#N)CCCC3)c1,AC50,[1],0.178 µM (inconclusive)
same,AC50,[2],0.0794 µM (inconclusive)
O=C(O)[C@@H]1C[C@@H](C(=O)O)N1,AC50,[2],39.8 µM (inconclusive)
Cc1cc(-c2ccc(/C=N/n3cnnc3)o2)c([N+](=O)[O-])cc1C,AC50,[2],11.2 µM (inconclusive)
COc1cccc(-c2cncnc2NCc2cccnc2)c1,AC50,[2],20 µM (inconclusive)
O=C(NCCc1ccccc1)c1cnc2ccccc2c1O,EC50,[3],> 53 µM (inactive)
Clc1ccccc1-c1nc(NCCN2CCOCC2)c2ccccc2n1,AC50,[1],25.1 µM (inconclusive)
same,AC50,[2],20 µM (inconclusive)
CN(C)C(=O)c1ccc(-c2nccc(NCc3cccs3)n2)cc1,AC50,[1],20 µM (inconclusive)
same,AC50,[2],20 µM (inconclusive)
Cc1cccc(CNc2ccnc(-c3cccc(C#N)c3)n2)c1,AC50,[2],25.1 µM (inconclusive)
same,AC50,[4],0.794 µM (inconclusive)
C[C@@H](C(=O)O)c1ccc(C(=O)c2ccccc2)s1,AC50,[2],7.94 µM (inconclusive)
same,AC50,[5],0.251 µM (inconclusive)
same,AC50,[6],12.6 µM (inconclusive)
same,AC50,[4],15.8 µM (inconclusive)
Cc1cnc(CNc2nc(-c3ccccc3C(F)(F)F)nc3ccccc23)cn1,AC50,[1],39.8 µM (inconclusive)
same,AC50,[2],25.1 µM (inconclusive)
CCCCCCCCCCCCC(=O)N1CCCC[C@H]1CNC(=O)[C@@H](N)CCCCN,AC50,[2],25.1 µM (inconclusive)
same,AC50,[5],31.6 µM (inconclusive)
same,AC50,[4],10 µM (inconclusive)
FC(F)(F)c1ccccc1-c1nc(NCCN2CCOCC2)c2ccccc2n1,AC50,[2],31.6 µM (inconclusive)
Cc1nnc(SC(C(=O)Nc2cc(Cl)cc(Cl)c2)c2ccccc2)nc1O (stereo not drawn),EC50,[7],10.6 µM (active)
same,EC50,[8],> 150 µM (not active)
Fc1ccc(Br)cc1C1C=C(c2ccc(Br)cc2)Nc2ncnn21 (stereo not drawn),EC50,[3],> 53 µM (inactive)
CN1CCc2cccc(Cl)c2CC1,AC50,[2],31.6 µM (inconclusive)
Cc1cc(C(=O)COc2cccc3cccnc23)c(C)n1C,IC50,[9],6.66 µM (active)
same,EC50,[3],> 53 µM (inactive)
O=C(c1n[nH]c(=O)c2ccccc12)N1CCN(C2c3ccccc3-c3ccccc32)CC1,AC50,[2],31.6 µM (inconclusive)
N#C/C(=C\c1c[nH]c2ccccc12)C(=O)c1ccc(O)c(O)c1,AC50,[1],31.6 µM (inconclusive)
same,AC50,[2],25.1 µM (inconclusive)
same,AC50,[4],31.6 µM (inconclusive)
CCCCCCCCCOc1ccc2[nH]cc(CCN)c2c1,AC50,[2],25.1 µM (inconclusive)
same,AC50,[6],39.8 µM (inconclusive)
same,AC50,[4],25.1 µM (inconclusive)
CCOc1ccc(C2C(C(=O)O)c3ccccc3C(=O)N2CCN2CCOCC2)cc1 (stereo not drawn),AC50,[2],25.1 µM (inconclusive)
Cc1cc(C)c2c(-n3cccc3)nn(CC#N)c2n1,AC50,[2],10 µM (inconclusive)
same,AC50,[6],15.8 µM (inconclusive)
same,AC50,[4],14.1 µM (inconclusive)
O=C(c1cc(C(F)(F)F)cc(C(F)(F)F)c1)N1CCC2(CCCN(c3ncccn3)C2)CC1,AC50,[1],20 µM (inconclusive)
same,AC50,[2],10 µM (inconclusive)
same,AC50,[5],31.6 µM (inconclusive)
same,AC50,[6],15.8 µM (inconclusive)
